According to the supplement of paper PMC10307832:

Tests used:
Test in all cases: relative viability (nuclei count vs DMSO), 5 days (fraction); higher = more cells survive
Daporinad + OSI-027 = compound: O=C(/C=C/c1cccnc1)NCCCCC1CCN(C(=O)c2ccccc2)CC1 [Daporinad] + COc1cccc2cc(-c3nc([C@H]4CC[C@H](C(=O)O)CC4)n4ncnc(N)c34)[nH]c12 [OSI-027] (partner 0.5 µM)
Summary of the method: (§1)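 A single step with final 0.05% Triton X-100, 1% formaldehyde and 1 ug/ml Hoechst fixed the cells and stained nuclei 5 days after treatment. Lung cancer cell lines in 1536-well plates had been treated by pin tool the day after seeding with one drug alone or a fixed anchor-drug dose plus five library-drug doses (not always all listed) in √10 steps, and nuclei were counted on 4× images. Relative viability is the ratio of nuclei in treated wells to nuclei in vehicle wells, taken as the median of duplicate plates.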

R406 + Luminespib = compound: COc1cc(Nc2ncc(F)c(Nc3ccc4c(n3)NC(=O)C(C)(C)O4)n2)cc(OC)c1OC [R406] + CCNC(=O)c1noc(-c2cc(C(C)C)c(O)cc2O)c1-c1ccc(CN2CCOCC2)cc1 [Luminespib] (partner 0.01 µM)
Summary of the method: as §1

R406 + Pictilisib = compound: COc1cc(Nc2ncc(F)c(Nc3ccc4c(n3)NC(=O)C(C)(C)O4)n2)cc(OC)c1OC [R406] + CS(=O)(=O)N1CCN(Cc2cc3nc(-c4cccc5[nH]ncc45)nc(N4CCOCC4)c3s2)CC1 [Pictilisib] (partner 1 µM)
Summary of the method: as §1

Daporinad + AZD7762 = compound: O=C(/C=C/c1cccnc1)NCCCCC1CCN(C(=O)c2ccccc2)CC1 [Daporinad] + NC(=O)Nc1cc(-c2cccc(F)c2)sc1C(=O)N[C@H]1CCCNC1 [AZD7762] (partner 0.2 µM)
Summary of the method: as §1

RERF-LC-KJ showed a relative viability (Daporinad + OSI-027; first compound 0.0005 µM) of 0.541, a relative viability (Daporinad + OSI-027; first compound 0.001581 µM) of 0.63 and a relative viability (Daporinad + OSI-027; first compound 0.005 µM) of 0.648. It also gave a relative viability (Daporinad + OSI-027; first compound 0.01581 µM) of 0.612, a relative viability (R406 + Luminespib; first compound 0.08 µM) of 1.25 and a relative viability (R406 + Luminespib; first compound 0.253 µM) of 1.3. The relative viability (R406 + Luminespib; first compound 0.8 µM) was 1.19, the relative viability (R406 + Luminespib; first compound 2.53 µM) was 1.25 and the relative viability (R406 + Luminespib; first compound 8 µM) was 0.725. It also gave a relative viability (R406 + Pictilisib; first compound 0.08 µM) of 0.749, a relative viability (R406 + Pictilisib; first compound 0.253 µM) of 0.488 and a relative viability (R406 + Pictilisib; first compound 0.8 µM) of 0.64. For the same cell line, the relative viability (R406 + Pictilisib; first compound 2.53 µM) was 0.43, the relative viability (R406 + Pictilisib; first compound 8 µM) was 0.502 and the relative viability (Daporinad + AZD7762; first compound 0.001581 µM) was 1.2. The relative viability (Daporinad + AZD7762; first compound 0.005 µM) was 1.14 and the relative viability (Daporinad + AZD7762; first compound 0.01581 µM) was 1.11.
